The results in this text go back to patent US20260226031A1, “NOVEL COMPOUNDS” (NRG THERAPEUTICS LTD., priority 2023, published 2026).

Where only a bound is given, the exact number is not on record here.

Assay [1] concerns mPTP. Put plainly: mPTP activity (Ca2+ retention) assay in isolated rat brain mitochondria. The class given is biochemical. To be noted: isolated rat brain mitochondria; Fluo5N fluorescence at 10 min after Ca2+ (75 μM) bolus. In outline: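 Mitochondria freshly isolated from brains of perfused female Sprague Dawley rats, digitonin-treated, in pH 7.4 mannitol/MOPS/KCl buffer with pyruvate, malate, ADP and oligomycin A. Incubated with compound 10 min at RT with 2 μM Fluo5N. Fluorescence then read every 3 s for 10 min.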

Assay [2] concerns mPTP. The assay can be described thus: mPTP activity (Ca2+ retention) assay in isolated rat liver mitochondria. The assay is classed as biochemical. The conditions noted are these: isolated rat liver mitochondria; Fluo5N fluorescence at 10 min after CaCl2 (75 μM) bolus; DMSO 0%, 5 μM cyclosporin A 100% inhibition. The method, boiled down:
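Freshly isolated female Sprague Dawley rat liver mitochondria with succinate, rotenone and Fluo5N were preincubated 10 min at RT with compounds (final 30 μM to 1 nM), then challenged with CaCl2. Fluorescence at 10 min gave % inhibition versus DMSO (0%) and 5 μM cyclosporin A (100%); pIC50 calculated.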

For `O=C(c1cncc(=O)[nH]1)N1CC(c2ccccc2)C2(CCCC2)C1` (single isomer, unassigned) [Example 17b, 6-[4-phenyl-2-azaspiro[4.4]nonane-2-carbonyl]-1H-pyrazin-2-one], the “mPTP Rat brain pIC50” value in assay [1] is recorded as less than 4.52. In assay [2], the “mPTP Rat liver pIC50*” value is less than 4.52.
For the molecule `O=C(c1cc(O)no1)N1CC(c2ccccc2)C2(CCC2)C1` (stereo not shown) [Example 22, (3-hydroxyisoxazol-5-yl)(8-phenyl-6-azaspiro[3.4]octan-6-yl)methanone], the “mPTP Rat brain pIC50” value in assay [1] turned out to be 6.7. For the same molecule, the “mPTP Rat liver pIC50*” value in assay [2] was determined as 6.12.
As to `O=C(c1noc(=O)[nH]1)N1CC(c2ccc(F)cc2)C2(CCC2)C1` (single isomer, unassigned) [Example 41b, 3-(8-(4-fluorophenyl)-6-azaspiro[3.4]octane-6-carbonyl)-1,2,4-oxadiazol-5(4H)-one], in assay [1], the “mPTP Rat brain pIC50” value is given as less than 4.52. Further, in assay [2], the “mPTP Rat liver pIC50*” value is less than 4.52.
For `O=C(c1cncc(=O)[nH]1)N1CC(c2cccc(Cl)c2F)C2(CCC2)C1` (single isomer, unassigned) [Example 33b, 6-(8-(3-chloro-2-fluorophenyl)-6-azaspiro[3.4]octane-6-carbonyl)pyrazin-2(1H)-one], the “mPTP Rat brain pIC50” value in assay [1] is listed as less than 4.52. In addition, in assay [2], the “mPTP Rat liver pIC50*” value is on record as less than 4.52.
Take `O=C(c1cncc(=O)[nH]1)N1CC(c2cccc(Cl)c2)C2(CCC2)C1` (single isomer, unassigned) [Example 31b, 6-(8-(3-chlorophenyl)-6-azaspiro[3.4]octane-6-carbonyl)pyrazin-2(1H)-one]: the “mPTP Rat brain pIC50” value in assay [1] is less than 4.52. Moreover, in assay [2], the “mPTP Rat liver pIC50*” value is reported as 4.58.
Turning to `O=C(c1cncc(=O)[nH]1)N1CC(c2cccc(F)c2)C2(CCC2)C1` (single isomer, unassigned) [Example 40b, 6-(8-(3-fluorophenyl)-6-azaspiro[3.4]octane-6-carbonyl)pyrazin-2(1H)-one], the “mPTP Rat brain pIC50” value in assay [1] is listed as less than 4.52. Moreover, the “mPTP Rat liver pIC50*” value in assay [2] is reported as 4.97.
Take `O=C(c1noc(=O)[nH]1)N1CC(c2cccc(F)c2F)C2(CCC2)C1` (single isomer, unassigned) [Example 44b, 3-(8-(2,3-difluorophenyl)-6-azaspiro[3.4]octane-6-carbonyl)-1,2,4-oxadiazol-5(4H)-one]: in assay [1], the “mPTP Rat brain pIC50” value is given as 5.19. Also, the “mPTP Rat liver pIC50*” value in assay [2] is given as less than 4.52.
Turning to `O=C(c1cnn[nH]1)N1CC(c2ccccc2)C2(CCC2)C1` (single isomer, unassigned) [Example 14a, 8-Phenyl-6-(3H-1,2,3-triazole-4-carbonyl)-6-azaspiro[3.4]octane], the “mPTP Rat brain pIC50” value in assay [1] is on record as 5.21. The “mPTP Rat liver pIC50*” value in assay [2] came out at 5.23.
With `O=C(c1noc(=O)[nH]1)N1CC(c2ccc(F)cc2F)C2(CCC2)C1` (single isomer, unassigned) [Example 48a, 3-(8-(2,4-difluorophenyl)-6-azaspiro[3.4]octane-6-carbonyl)-1,2,4-oxadiazol-5(4H)-one], the “mPTP Rat brain pIC50” value in assay [1] was determined as 6.47. In assay [2], the “mPTP Rat liver pIC50*” value was found to be 5.53.
For the molecule `O=C(c1noc(=O)[nH]1)N1CC(c2ccccc2)C2(CCC2)C1` (stereo not shown) [Example 24, 3-[8-Phenyl-6-azaspiro[3.4]octane-6-carbonyl]-4H-1,2,4-oxadiazol-5-one], the “mPTP Rat brain pIC50” value in assay [1] stood at 6.75. The “mPTP Rat liver pIC50*” value in assay [2] was found to be 6.02.
Regarding `COc1ccc(C2CN(C(=O)c3cncc(=O)[nH]3)CC23CCC3)cc1` (single isomer, unassigned) [Example 28b, 6-(8-(4-methoxyphenyl)-6-azaspiro[3.4]octane-6-carbonyl)pyrazin-2(1H)-one], the “mPTP Rat brain pIC50” value in assay [1] is on record as less than 4.52. For the same molecule, the “mPTP Rat liver pIC50*” value in assay [2] is less than 4.52.
Regarding `O=C(c1cc(O)no1)N1CC(c2ccc(F)c(F)c2)C2(CCC2)C1` (single isomer, unassigned) [Example 46a, (8-(3,4-difluorophenyl)-6-azaspiro[3.4]octan-6-yl)(3-hydroxyisoxazol-5-yl)methanone], the “mPTP Rat brain pIC50” value in assay [1] is recorded as 7.44. Moreover, the “mPTP Rat liver pIC50*” value in assay [2] came to 6.28.
Turning to `O=C(c1cncc(=O)[nH]1)N1CC(c2ccc(Cl)cc2)C2(CCC2)C1` (single isomer, unassigned) [Example 16b, 6-[8-(4-Chlorophenyl)-6-azaspiro[3.4]octane-6-carbonyl]-1H-pyrazin-2-one], the “mPTP Rat brain pIC50” value in assay [1] was less than 4.52. The “mPTP Rat liver pIC50*” value in assay [2] was less than 4.52.
As to `O=C(c1cc(O)no1)N1CC(c2ccc(F)cc2F)C2(CCC2)C1` (single isomer, unassigned) [Example 42a, (8-(2,4-difluorophenyl)-6-azaspiro[3.4]octan-6-yl)(3-hydroxyisoxazol-5-yl)methanone], in assay [1], the “mPTP Rat brain pIC50” value is recorded as 6.99. For the same molecule, the “mPTP Rat liver pIC50*” value in assay [2] was 6.26.
As to `O=C(c1nccc(=O)[nH]1)N1CC(c2ccccc2)C2(CCC2)C1` (racemic) [Example 18, rac-2-{8-phenyl-6-azaspiro[3.4]octane-6-carbonyl}-3H-pyrimidin-4-one], in assay [1], the “mPTP Rat brain pIC50” value turned out to be 6.56. Further, the “mPTP Rat liver pIC50*” value in assay [2] is on record as 5.52.
As to `O=C(c1cc(O)no1)N1CC(c2cccc(F)c2)C2(CCC2)C1` (single isomer, unassigned) [Example 38b, (8-(3-fluorophenyl)-6-azaspiro[3.4]octan-6-yl)(3-hydroxyisoxazol-5-yl)methanone], in assay [1], the “mPTP Rat brain pIC50” value is listed as less than 4.52. In addition, the “mPTP Rat liver pIC50*” value in assay [2] is recorded as less than 4.52.
For the molecule `O=C(c1cc(O)no1)N1CC(c2ccccc2)C2(CCC2)C1` (single isomer, unassigned) [Example 23b, (3-hydroxyisoxazol-5-yl)(8-phenyl-6-azaspiro[3.4]octan-6-yl)methanone], in assay [1], the “mPTP Rat brain pIC50” value is recorded as less than 4.52. The “mPTP Rat liver pIC50*” value in assay [2] was less than 4.52.
With `CCC1CN(C(=O)c2cncc(=O)[nH]2)CC1c1ccccc1` (single isomer, unassigned) [Example 15c, 6-(3-ethyl-4-phenylpyrrolidine-1-carbonyl)pyrazin-2(1H)-one], the “mPTP Rat brain pIC50” value in assay [1] is listed as 5.93. In addition, the “mPTP Rat liver pIC50*” value in assay [2] was 5.24.
On to `Cn1nc(C(=O)N2C[C@H](c3ccccc3)C3(CCC3)C2)[nH]c1=O` (single isomer, unassigned) [Example 5c], for which the “mPTP Rat brain pIC50” value in assay [1] is recorded as less than 4.52. In addition, the “mPTP Rat liver pIC50*” value in assay [2] is less than 4.52.
For the molecule `O=C(c1nccc(=O)[nH]1)N1CC(c2ccccc2)C2(CC(F)C2)C1` (single isomer, unassigned) [Example 25a, 2-(2-fluoro-8-phenyl-6-azaspiro[3.4]octane-6-carbonyl)pyrimidin-4(3H)-one], the “mPTP Rat brain pIC50” value in assay [1] came to 6.88. Also, the “mPTP Rat liver pIC50*” value in assay [2] is recorded as 6.33.
On to `O=C(c1noc(=O)[nH]1)N1CC(c2ccc(F)c(F)c2)C2(CCC2)C1` (single isomer, unassigned) [Example 47a, 3-(8-(3,4-difluorophenyl)-6-azaspiro[3.4]octane-6-carbonyl)-1,2,4-oxadiazol-5(4H)-one], for which, in assay [1], the “mPTP Rat brain pIC50” value was 7. The “mPTP Rat liver pIC50*” value in assay [2] stood at 5.75.
Regarding `Cn1nc(C(=O)N2C[C@@H](c3ccccc3)C3(CCC3)C2)[nH]c1=O` (single isomer, unassigned) [Example 5b], the “mPTP Rat brain pIC50” value in assay [1] was determined as 6.55. In addition, the “mPTP Rat liver pIC50*” value in assay [2] stood at 5.33.
The matching figures for `O=C(c1cncc(=O)[nH]1)N1CC(c2ccc(F)c(F)c2)C2(CCC2)C1` (single isomer, unassigned) [Example 45b, 6-(8-(3,4-difluorophenyl)-6-azaspiro[3.4]octane-6-carbonyl)pyrazin-2(1H)-one]: 6.78 and less than 4.52.
In the case of `N#Cc1ccc(C2CN(C(=O)c3cncc(=O)[nH]3)CC23CCC3)cc1` (single isomer, unassigned) [Example 20b, 4-[6-(6-oxo-1H-pyrazine-2-carbonyl)-6-azaspiro[3.4]octan-8-yl]benzonitrile], the “mPTP Rat brain pIC50” value in assay [1] is listed as less than 4.52. For the same molecule, in assay [2], the “mPTP Rat liver pIC50*” value is on record as less than 4.52.
On to `O=C(c1cncc(=O)[nH]1)N1CC(c2ccccc2Cl)C2(CCC2)C1` (single isomer, unassigned) [Example 30a, 6-(8-(2-chlorophenyl)-6-azaspiro[3.4]octane-6-carbonyl)pyrazin-2(1H)-one], for which, in assay [1], the “mPTP Rat brain pIC50” value is 6.92. Also, the “mPTP Rat liver pIC50*” value in assay [2] is 5.28.
With `O=C(c1cncc(O)c1)N1CC(c2ccccc2)C2(CCC2)C1` (stereo not shown) [Example 1a, (5-hydroxypyridin-3-yl)(8-phenyl-6-azaspiro[3.4]octan-6-yl)methanone], the “mPTP Rat brain pIC50” value in assay [1] was 6.73. For the same molecule, the “mPTP Rat liver pIC50*” value in assay [2] worked out at 5.68.
The matching figures for `O=C(c1noc(=O)[nH]1)N1CC(c2cccc(F)c2F)C2(CCC2)C1` (single isomer, unassigned) [Example 44a, 3-(8-(2,3-difluorophenyl)-6-azaspiro[3.4]octane-6-carbonyl)-1,2,4-oxadiazol-5(4H)-one]: 7.33 and 5.63.
Regarding `O=C(c1cncc(O)c1)N1CC(c2ccccc2)C2(CCC2)C1` (single isomer, unassigned) [Example 1b, (5-hydroxypyridin-3-yl)(8-phenyl-6-azaspiro[3.4]octan-6-yl)methanone], in assay [1], the “mPTP Rat brain pIC50” value is 6.94. Further, the “mPTP Rat liver pIC50*” value in assay [2] was determined as 6.01.
The matching figures for `O=C(c1cncc(=O)[nH]1)N1CC(c2cccc(F)c2F)C2(CCC2)C1` (single isomer, unassigned) [Example 43b, 6-(8-(2,3-difluorophenyl)-6-azaspiro[3.4]octane-6-carbonyl)pyrazin-2(1H)-one]: 5.69 and 4.94.
